Data published in US6852740B2, “Pyrazole derivatives as p38 kinase inhibitors” (G. D. Searle & Co., priority 1997, dated 2005).

Key:
human p38 kinase alpha [1] = target: T1, human p38 kinase alpha (Homo sapiens, UniProt Q16539); assay: p38α in vitro kinase assay, PHAS-I procedure; format: biochemical
T1 construct: The coding region of the human p38a cDNA was obtained by PCR-amplification from RNA; made in house; host or cells: E. coli DH10B
Experimental: The ability of compounds to inhibit human p38 kinase alpha was evaluated using two in vitro assay methods. In the first method, activated human p38 kinase alpha phosphorylates a biotinylated substrate, PHAS-I (phosphorylated heat and acid stable protein-insulin inducible), in the presence of gamma ^32P-ATP (^32P-ATP). PHAS-I was biotinylated prior to the assay and provides a means of capturing the substrate which is phosphorylated during the assay. p38 Kinase was activated by MKK6. Compounds were tested in 10 fold serial dilutions over the range of 100 μM to 0.001 μM using 1% DMSO. Each concentration of inhibitor was tested in triplicate.
All reactions were carried out in 96 well polypropylene plates. Each reaction well contained 25 mM HEPES pH 7.5, 10 mM magnesium acetate and 50 μM unlabeled ATP. Activation of p38 was required to achieve sufficient signal in the assay. Biotinylated PHAS-I was used at 1-2 μg per 50 μl reaction volume, with a final concentration of 1.5 μM. Activated human p38 kinase alpha was used at 1 μg per 50 μl reaction volume representing a final concentration of 0.3 μM. […]
Following incubation, 20 μl of reaction mixture was transferred to a high capacity streptavidin coated filter plate (SAM-streptavidin-matrix, Promega) prewetted with phosphate buffered saline. […] The plates were sealed and counted.

human p38 kinase alpha [2] = target: T1, human p38 kinase alpha; assay: p38α in vitro kinase assay, EGFRP procedure; format: biochemical
Experimental: A second assay format was also employed that is based on p38 kinase alpha induced phosphorylation of EGFRP (epidermal growth factor receptor peptide, a 21 mer) in the presence of ^33P-ATP. Compounds were tested in 10 fold serial dilutions over the range of 100 μM to 0.001 μM in 1% DMSO. Each concentration of inhibitor was tested in triplicate. Compounds were evaluated in 50 μl reaction volumes in the presence of 25 mM Hepes pH 7.5, 10 mM magnesium acetate, 4% glycerol, 0.4% bovine serum albumin, 0.4 mM DTT, 50 μM unlabeled ATP, 25 μg EGFRP (200 μM), and 0.05 uCi gamma ^33P-ATP. Reactions were initiated by addition of 0.09 μg of activated, purified human GST-p38 kinase alpha. Activation was carried out using GST-MKK6 (5:1,p38:MKK6) for one hour at 30° C. in the presence of 50 μM ATP. Following incubation for 60 minutes at room temperature, the reaction was stopped by addition of 150 μl of AG 1×8 resin in 900 mM sodium formate buffer, pH 3.0 (1 volume resin to 2 volumes buffer). The mixture was mixed three times with pipetting and the resin was allowed to settle. A total of 50 μl of clarified solution head volume was transferred from the reaction wells to Microlite-2 plates. 150 μl of Microscint 40 was then added to each well of the Microlite plate, and the plate was sealed, mixed, and counted.

[3] = test system: TNF-α release by U937 cells; assay: LPS stimulation of TNF production by U937 cells; format: cell-based; conditions: Homo sapiens, U-937; LPS-stimulated differentiated U937 cells, TNF-α by ELISA after 4 hour incubation; read-out: TNF Cell IC50
Experimental: U937 cells (ATCC) were propagated in RPMI 1640 containing 10% fetal bovine serum, 100 IU/ml penicillin, 100 μg/ml streptomycin, and 2 mM glutamine (Gibco). Fifty million cells in 100 ml media were induced to terminal monocytic differentiation by 24 hour incubation with 20 ng/ml phorbol 12-myristate 13-acetate (Sigma). The cells were washed by centrifugation (200×g for 5 min) and resuspended in 100 ml fresh medium. After 24-48 hours, the cells were harvested, centrifuged, and resuspended in culture medium at 2 million cells/ml.
U937 cells (0.1 ml, 2 million/ml) were incubated with 0.1 ml compound (0.004-50 μM, final concentration) for 1 hour in 96 well microtiter plates. Compounds were prepared as 10 mM stock solutions in DMSO and diluted in culture medium to yield a final DMSO concentration of 0.1% in the cell assay. LPS (E coli, 100 ng/ml final concentration) was then added at a volume of 0.02 ml. After 4 hour incubation at 37° C., the amount of TNF-α released in the culture medium was quantitated by ELISA. Inhibitory potency is expressed as IC50 (μM).

T1 sequence (Q16539 whole entry): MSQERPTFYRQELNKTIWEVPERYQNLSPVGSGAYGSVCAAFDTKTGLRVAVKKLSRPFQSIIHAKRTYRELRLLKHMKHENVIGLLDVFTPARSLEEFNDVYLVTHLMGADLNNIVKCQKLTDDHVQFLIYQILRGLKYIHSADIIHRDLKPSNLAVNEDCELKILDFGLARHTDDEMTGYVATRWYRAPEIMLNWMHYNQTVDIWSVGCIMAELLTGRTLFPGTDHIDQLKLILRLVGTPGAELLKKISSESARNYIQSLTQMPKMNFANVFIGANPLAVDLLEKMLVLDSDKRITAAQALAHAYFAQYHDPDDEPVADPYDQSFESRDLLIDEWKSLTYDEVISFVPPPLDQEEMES

| IC50 (human p38 kinase alpha [1]) [µM] | IC50 (human p38 kinase alpha [2]) [µM] | IC50 [3] [µM] | melting point [°C] | Structure (SMILES) |
| --- | --- | --- | --- | --- |
| 8.7 | 0.66 | 0.6 | – | Cc1n[nH]c(/C=C/c2ccccc2)c1-c1ccncc1 [Example 1, 4-[3-Methyl-5-(2-phenylethenyl)-1H-pyrazol-4-yl]pyridine] |
| 1 | 2.8 | 2.3 | – | Cc1n[nH]c(CCc2ccccc2)c1-c1ccncc1 [Example 2, 4-[3-Methyl-5-(2-phenylethyl)-1H-pyrazol-4-yl]pyridine] |
| – | – | – | 125 to 131 | c1ccc(CCc2n[nH]cc2-c2ccncc2)cc1 [Example 3, 4-[5-(2-phenylethyl)-1H-pyrazol-4-yl]pyridine] |
